Several values for one entry are separate records, joined by “and”; a condition that tells them apart may be missing. Equal values may be shown once. Inconclusive results and toxic doses are left out. How the source made its calls: active means survival T/C of 150% or more; inactive means T/C below 125% in these data.
Tested on: P388 leukemia ip, CD2F1 mice, survival T/C
Assay: NCI In Vivo Anticancer Drug Screen. Data for tumor model P388 Leukemia (intraperitoneal) in CD2F1 (CDF1) mice
Conditions: endpoint: median survival time, higher = longer survival
In short: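 Mice carrying the transplanted tumor received test compound or vehicle. Survival was recorded in each group, and the value is the treated-group measurement divided by that of the vehicle-treated control group.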

[1] = dose: 60.0 mg/kg/injection, schedule: Q01DX005 (ip), vehicle: saline with Tween-80
[2] = dose: 120.0 mg/kg/injection, schedule: Q01DX005 (ip), vehicle: saline with Tween-80
[3] = dose: 240.0 mg/kg/injection, schedule: Q01DX005 (ip), vehicle: saline with Tween-80
[4] = dose: 50.0 mg/kg/injection, schedule: Q01DX005 (ip), vehicle: Klucel (hydroxypropylcellulose) (HPC)
[5] = dose: 100.0 mg/kg/injection, schedule: Q01DX005 (ip), vehicle: Klucel (hydroxypropylcellulose) (HPC)
[6] = dose: 200.0 mg/kg/injection, schedule: Q01DX005 (ip), vehicle: Klucel (hydroxypropylcellulose) (HPC)
[7] = dose: 60.0 mg/kg/injection, schedule: Q01DX005 (ip), vehicle: saline
[8] = dose: 120.0 mg/kg/injection, schedule: Q01DX005 (ip), vehicle: saline
[9] = dose: 240.0 mg/kg/injection, schedule: Q01DX005 (ip), vehicle: saline
[10] = dose: 50.0 mg/kg/injection, schedule: Q01DX009 (ip), vehicle: saline
[11] = dose: 100.0 mg/kg/injection, schedule: Q01DX009 (ip), vehicle: saline
[12] = dose: 200.0 mg/kg/injection, schedule: Q01DX009 (ip), vehicle: saline

Measured: T/C

Cc1ccc(N=Nc2c(-c3ccccc3)nn(C(N)=S)c2C)cc1
inactive: dose: 100.0 mg/kg/injection, schedule: Q01DX001 (ip), vehicle: saline with Tween-80 92 % of control | dose: 200.0 mg/kg/injection, schedule: Q01DX001 (ip), vehicle: saline with Tween-80 97 % of control | dose: 400.0 mg/kg/injection, schedule: Q01DX001 (ip), vehicle: saline with Tween-80 103 % of control

CCC(C)/C(=C\C#N)NCCN/C(=C/C#N)C(C)CC (stereo unspecified)
inactive: dose: 60.0 mg/kg/injection, schedule: Q01DX005 (ip), vehicle: Klucel (hydroxypropylcellulose) (HPC) 94 % of control | dose: 120.0 mg/kg/injection, schedule: Q01DX005 (ip), vehicle: Klucel (hydroxypropylcellulose) (HPC) 91 % of control | dose: 240.0 mg/kg/injection, schedule: Q01DX005 (ip), vehicle: Klucel (hydroxypropylcellulose) (HPC) 89 % of control

Oc1cc2c(cc1C(Nc1ncccn1)c1ccc(F)cc1)OCO2 (stereo unspecified)
inactive: [1] 99 % of control | [2] 91 % of control | [3] 92 % of control

COc1ccc(C2=C(c3ccccc3)C(C)(C)Oc3ccc4ccccc4c32)cc1
inactive: [4] 95 % of control | [5] 95 % of control | [6] 104 % of control

CCCCCCCCCCCCCCCCNCC(O)CN (stereo unspecified)
inactive: dose: 3.13 mg/kg/injection, schedule: Q01DX009 (ip), vehicle: saline with Tween-80 102 % of control | dose: 6.25 mg/kg/injection, schedule: Q01DX009 (ip), vehicle: saline with Tween-80 96 % of control | dose: 12.5 mg/kg/injection, schedule: Q01DX009 (ip), vehicle: saline with Tween-80 88 % of control

COC1C(C(=O)CS(=O)Cc2ccccc2)OC2OC(C)(C)OC21 (stereo unspecified)
inactive: [7] 104 % of control and 98 % of control | [8] 103 % of control | [9] 106 % of control and 108 % of control

CC1(C)COCN1CN1COCC1(C)C
inactive: dose: 0.78 mg/kg/injection, schedule: Q04DX003 (ip), vehicle: saline 100 % of control | dose: 1.56 mg/kg/injection, schedule: Q04DX003 (ip), vehicle: saline 101 % of control | dose: 3.13 mg/kg/injection, schedule: Q04DX003 (ip), vehicle: saline 100 % of control | dose: 12.5 mg/kg/injection, schedule: Q04DX003 (ip), vehicle: saline 111 % of control | dose: 25.0 mg/kg/injection, schedule: Q04DX003 (ip), vehicle: saline 102 % of control | dose: 50.0 mg/kg/injection, schedule: Q04DX003 (ip), vehicle: saline 120 % of control | dose: 100.0 mg/kg/injection, schedule: Q04DX003 (ip), vehicle: saline 123 % of control | dose: 200.0 mg/kg/injection, schedule: Q04DX003 (ip), vehicle: saline 107 % of control

Cc1ccc([N+](=O)[O-])cc1NC(=O)NNC(=O)CNC(=O)NCc1ccco1
inactive: [1] 93 % of control | [2] 89 % of control | [3] 89 % of control

COc1ccc(NC(SC)=C(C#N)C#N)cc1
inactive: dose: 25.0 mg/kg/injection, schedule: Q04DX002 (ip), vehicle: saline with Tween-80 99 % of control | dose: 50.0 mg/kg/injection, schedule: Q04DX002 (ip), vehicle: saline with Tween-80 100 % of control | dose: 100.0 mg/kg/injection, schedule: Q04DX002 (ip), vehicle: saline with Tween-80 98 % of control

N=C(N)C1CC1
inactive: dose: 12.5 mg/kg/injection, schedule: Q01DX009 (ip), vehicle: saline 100 % of control | dose: 25.0 mg/kg/injection, schedule: Q01DX009 (ip), vehicle: saline 100 % of control | [10] 102 % of control

O=C1C(Cl)=C(N2CCOCC2)C(=O)C(Cl)=C1N1CCOCC1
inactive: dose: 50.0 mg/kg/injection, schedule: Q01DX005 (ip), vehicle: suspension in saline 99 % of control | dose: 100.0 mg/kg/injection, schedule: Q01DX005 (ip), vehicle: suspension in saline 104 % of control

Nc1ncnc(N)c1NC(=O)c1ccc(OCc2ccccc2)cc1
inactive: [1] 105 % of control | [2] 99 % of control | [3] 95 % of control

N#C/C(=N\Nc1cccc(C(F)(F)F)c1)C(N)=O
inactive: [4] 103 % of control | [5] 115 % of control

O=c1c(C(=Nc2ccccc2)c2ccccc2)c[nH]n1-c1ccccc1
inactive: [1] 105 % of control | [2] 105 % of control | [3] 105 % of control

Cc1cc(C)c(C(Cl)(Cl)Cl)c(C)c1Cl
inactive: dose: 6.25 mg/kg/injection, schedule: Q04DX003 (ip), vehicle: saline with Tween-80 104 % of control | dose: 8.0 mg/kg/injection, schedule: Q04DX003 (ip), vehicle: saline with Tween-80 90 % of control | dose: 12.0 mg/kg/injection, schedule: Q04DX003 (ip), vehicle: saline with Tween-80 100 % of control | dose: 12.5 mg/kg/injection, schedule: Q01DX009 (ip), vehicle: saline sonified 118 % of control | dose: 12.5 mg/kg/injection, schedule: Q04DX003 (ip), vehicle: saline with Tween-80 118 % of control | dose: 18.0 mg/kg/injection, schedule: Q04DX003 (ip), vehicle: saline with Tween-80 113 % of control | dose: 75.0 mg/kg/injection, schedule: Q01DX009 (ip), vehicle: saline sonified 105 % of control
active: dose: 33.0 mg/kg/injection, schedule: Q01DX009 (ip), vehicle: saline sonified 165 % of control | dose: 50.0 mg/kg/injection, schedule: Q01DX009 (ip), vehicle: saline sonified 150 % of control

Cc1ccccc1N=Nc1c(O)n(-c2ccccc2Cl)c(=S)n(-c2ccccc2)c1=O
inactive: dose: 25.0 mg/kg/injection, schedule: Q01DX001 (ip), vehicle: Klucel (hydroxypropylcellulose) (HPC) 102 % of control | dose: 50.0 mg/kg/injection, schedule: Q01DX001 (ip), vehicle: Klucel (hydroxypropylcellulose) (HPC) 104 % of control | dose: 100.0 mg/kg/injection, schedule: Q01DX001 (ip), vehicle: Klucel (hydroxypropylcellulose) (HPC) 101 % of control

O=C1CSC(=S)N1Cc1cccnc1
inactive: dose: 50.0 mg/kg/injection, schedule: Q01DX009 (ip), vehicle: Klucel (hydroxypropylcellulose) (HPC) 100 % of control | dose: 100.0 mg/kg/injection, schedule: Q01DX009 (ip), vehicle: Klucel (hydroxypropylcellulose) (HPC) 102 % of control | dose: 200.0 mg/kg/injection, schedule: Q01DX009 (ip), vehicle: Klucel (hydroxypropylcellulose) (HPC) 106 % of control

CCN(CC)CCCC(C)Nc1c(C)cnc2cc(Cl)c(C)cc12 (stereo unspecified)
inactive: dose: 50.0 mg/kg/injection, schedule: Q01DX005 (ip), vehicle: saline 103 % of control | dose: 100.0 mg/kg/injection, schedule: Q01DX005 (ip), vehicle: saline 100 % of control

O=C(NCCN1CCOCC1)Nc1ccc2c(c1)OCCOCCOCCOCCO2
inactive: [7] 105 % of control | [8] 102 % of control | [9] 99 % of control

N#Cc1cnn(-c2ccc([N+](=O)[O-])cc2[N+](=O)[O-])c1N
inactive: [10] 101 % of control | [11] 100 % of control | [12] 108 % of control

Clc1ccnc2ccc3ccccc3c12
inactive: [10] 107 % of control | [11] 100 % of control and 101 % of control | [12] 100 % of control and 92 % of control

CC(=O)n1oc2ccc(Br)cc2c1=O
inactive: [4] 100 % of control | [5] 95 % of control | [6] 100 % of control

COc1ccc2nc3ccccc3c(NCCCCCCNc3c4ccccc4nc4ccc(OC)cc34)c2c1
inactive: dose: 0.62 mg/kg/injection, schedule: Q## X009 (ip), vehicle: lactic acid 108 % of control | dose: 0.63 mg/kg/injection, schedule: Q01DX009 (ip), vehicle: other 100 % of control | dose: 1.25 mg/kg/injection, schedule: Q01DX009 (ip), vehicle: other 107 % of control | dose: 1.25 mg/kg/injection, schedule: Q## X009 (ip), vehicle: lactic acid 111 % of control | dose: 2.5 mg/kg/injection, schedule: Q01DX009 (ip), vehicle: other 100 % of control | dose: 2.5 mg/kg/injection, schedule: Q## X009 (ip), vehicle: lactic acid 119 % of control | dose: 3.75 mg/kg/injection, schedule: Q01DX009 (ip), vehicle: other 109 % of control | dose: 5.0 mg/kg/injection, schedule: Q01DX009 (ip), vehicle: other 116 % of control | dose: 5.0 mg/kg/injection, schedule: Q## X009 (ip), vehicle: lactic acid 113 % of control

CC(C1N(c2ccc(C(=O)NC(CCC(=O)O)C(=O)O)cc2)CC2CNc3nc(N)[nH]c(=O)c3N21)C1N(c2ccc(C(=O)NC(CCC(=O)O)C(=O)O)cc2)CC2CNc3nc(N)[nH]c(=O)c3N21 (stereo unspecified)
inactive: dose: 50.0 mg/kg/injection, schedule: Q01DX001 (ip), vehicle: saline 94 % of control | dose: 100.0 mg/kg/injection, schedule: Q01DX001 (ip), vehicle: saline 108 % of control | dose: 200.0 mg/kg/injection, schedule: Q01DX001 (ip), vehicle: saline 116 % of control
